Target: T1, recombinant human SAE enzyme (Homo sapiens, UniProt Q9UBT2)
T1 sequence (Q9UBT2 1-640): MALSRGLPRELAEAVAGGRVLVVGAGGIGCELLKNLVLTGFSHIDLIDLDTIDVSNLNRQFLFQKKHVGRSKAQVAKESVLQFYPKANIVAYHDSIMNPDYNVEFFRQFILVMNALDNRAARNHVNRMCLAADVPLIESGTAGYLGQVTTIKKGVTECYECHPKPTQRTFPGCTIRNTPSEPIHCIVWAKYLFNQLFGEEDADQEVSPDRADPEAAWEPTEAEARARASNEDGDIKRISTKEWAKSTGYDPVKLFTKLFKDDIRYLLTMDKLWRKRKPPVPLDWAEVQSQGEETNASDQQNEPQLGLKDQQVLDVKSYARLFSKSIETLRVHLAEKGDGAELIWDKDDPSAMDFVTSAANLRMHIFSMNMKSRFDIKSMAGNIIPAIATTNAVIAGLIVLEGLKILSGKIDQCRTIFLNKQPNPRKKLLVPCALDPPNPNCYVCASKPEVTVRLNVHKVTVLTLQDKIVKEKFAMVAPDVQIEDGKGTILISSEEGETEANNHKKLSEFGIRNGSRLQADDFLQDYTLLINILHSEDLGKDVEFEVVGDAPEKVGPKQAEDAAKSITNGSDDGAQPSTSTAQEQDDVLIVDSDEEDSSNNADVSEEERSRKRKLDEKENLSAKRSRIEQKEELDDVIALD
T1 sequence (Q9UBE0 1-346 partner): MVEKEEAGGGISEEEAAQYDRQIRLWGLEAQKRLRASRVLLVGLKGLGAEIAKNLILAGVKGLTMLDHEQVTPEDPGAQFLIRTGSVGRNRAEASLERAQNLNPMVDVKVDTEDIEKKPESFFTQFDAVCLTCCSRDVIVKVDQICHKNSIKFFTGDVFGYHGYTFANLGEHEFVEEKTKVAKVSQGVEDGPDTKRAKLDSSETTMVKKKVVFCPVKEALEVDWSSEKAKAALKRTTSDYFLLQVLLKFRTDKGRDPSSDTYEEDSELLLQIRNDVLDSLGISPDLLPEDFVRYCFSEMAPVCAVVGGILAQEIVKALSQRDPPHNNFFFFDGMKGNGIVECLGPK
Assay: SAE HTRF Enzyme Assay
Assay type: biochemical
Conditions: for IC50: class symbols A-C; for inhibition at 0.111 µM: compound concentration 0.111 μM, read-out: Percent Inhibition
Outline: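 Sumoylation of Ubc9-GST by recombinant human SAE was followed by time-resolved FRET between Eu-cryptate anti-Flag and allophycocyanin anti-GST antibodies. The enzyme step used low ATP (0.5 μM) at pH 7.5 and ran 105 min at 24° C.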

Row | Compound | IC50 [nM] | inhibition at 0.111 µM [%]
1 | NS(=O)(=O)OC[C@H]1C[C@@H](Nc2ncncc2C(=O)c2ccn(Cc3ccncc3)n2)[C@H](O)[C@@H]1O [Compound I-160, {(1R,2R,3S,4R)-2,3-dihydroxy-4-[(5-{[1-(pyridin-4-ylmethyl)-1H-pyrazol-3-yl]carbonyl}pyrimidin-4-yl)amino]cyclopentyl}methyl sulfamate] | 10 to 100 | 81
2 | NS(=O)(=O)OC[C@H]1C[C@@H](Nc2ncncc2C(=O)c2ccn(Cc3ccc(F)cc3)n2)C[C@@H]1O [Compound I-161, {(1R,2S,4R)-4-[(5-{[1-(4-fluorobenzyl)-1H-pyrazol-3-yl]carbonyl}pyrimidin-4-yl)amino]-2-hydroxycyclopentyl}methyl sulfamate] | < 10 | 92
3 | Cc1ccnc(Cn2ccc(C(=O)c3cncnc3N[C@@H]3C[C@H](COS(N)(=O)=O)[C@@H](O)C3)n2)c1 [Compound I-162, [(1R,2S,4R)-2-hydroxy-4-{[5-({1-[(4-methylpyridin-2-yl)methyl]-1H-pyrazol-3-yl}carbonyl)pyrimidin-4-yl]amino}cyclopentyl]methyl sulfamate] | < 10 | 99
4 | NS(=O)(=O)OC[C@H]1C[C@@H](Nc2ncncc2C(=O)c2ccn(Cc3ccc(C(F)(F)F)o3)n2)C[C@@H]1O [Compound I-163, [(1R,2S,4R)-2-hydroxy-4-({5-[(1-{[5-(trifluoromethyl)-2-furyl]methyl}-1H-pyrazol-3-yl)carbonyl]pyrimidin-4-yl}amino)cyclopentyl]methyl sulfamate] | < 10 | 98
5 | C#Cc1cccc(Cn2nc(C(=O)c3cncnc3N[C@@H]3C[C@H](COS(N)(=O)=O)[C@@H](O)C3)cc2C)c1 [Compound I-164, {(1R,2S,4R)-4-[(5-{[1-(3-ethynylbenzyl)-5-methyl-1H-pyrazol-3-yl]carbonyl}pyrimidin-4-yl)amino]-2-hydroxycyclopentyl}methyl sulfamate] | < 10 | > 99
6 | NS(=O)(=O)OC[C@H]1C[C@@H](Nc2ncncc2C(=O)c2ccn(Cc3cccc(F)c3)n2)C[C@@H]1O [Compound I-165, {(1R,2S,4R)-4-[(5-{[1-(3-fluorobenzyl)-1H-pyrazol-3-yl]carbony1}pyrimidin-4-yl)amino]-2-hydroxycyclopentyl}methyl sulfamate] | < 10 | 98
7 | C#Cc1cc(Cn2ccc(C(=O)c3cncnc3N[C@@H]3C[C@H](COS(N)(=O)=O)[C@@H](O)C3)n2)ccc1F [Compound I-166, {(1R,2S,4R)-4-[(5-{[1-(3-ethynyl-4-fluorobenzyl)-1H-pyrazol-3-yl]carbonyl}pyrimidin-4-yl)amino]-2-hydroxycyclopentyl}methyl sulfamate] | < 10 | 98
8 | NS(=O)(=O)OC[C@H]1C[C@@H](Nc2ncncc2C(=O)c2ccn(Cc3ccc(C(F)(F)F)cc3)n2)[C@H](O)[C@@H]1O [Compound I-167, [(1R,2R,3S,4R)-2,3-dihydroxy-4-{[5-({1-[4-(trifluoromethyl)benzyl]-1H-pyrazol-3-yl}carbonyl)pyrimidin-4-yl]amino}cyclopentyl]methyl sulfamate] | < 10 | 98
9 | NS(=O)(=O)OC[C@H]1C[C@@H](Nc2ncncc2C(=O)c2ccn(Cc3cc(C(F)(F)F)cc(C(F)(F)F)c3)c2)C[C@@H]1O [Compound I-168, [(1R,2S,4R)-4-{[5-({1-[3,5-Bis(trifluoromethyl)benzyl]-1H-pyrrol-3-yl}carbonyl)pyrimidin-4-yl]amino}-2-hydroxycyclopentyl]methylsulfamate] | < 10 | 94
10 | Cc1cc(Cn2ccc(C(=O)c3cncnc3N[C@@H]3C[C@H](COS(N)(=O)=O)[C@@H](O)[C@H]3O)n2)no1 [Compound I-169, [(1R,2R,3S,4R)-2,3-dihydroxy-4-{[5-({1-[(5-methylisoxazol-3-yl)methyl]-1H-pyrazol-3-yl}carbonyl)pyrimidin-4-yl]amino}cyclopentyl]methyl sulfamate] | < 10 | 97
11 | NS(=O)(=O)OC[C@H]1C[C@@H](Nc2ncncc2C(=O)c2cc(C(F)(F)F)n(Cc3cccc(Cl)c3)n2)C[C@@H]1O [Compound I-170, {(1R,2S,4R)-4-[(5-{[1-(3-Chlorobenzyl)-5-(trifluoromethyl)-1H-pyrazol-3-yl]carbonyl}pyrimidin-4-yl)amino]-2-hydroxycyclopentyl}methyl sulfamate] | < 10 | 97
12 | NS(=O)(=O)OC[C@H]1C[C@@H](Nc2ncncc2C(=O)c2ccn(Cc3ccc(C(F)(F)F)cc3)n2)C[C@@H]1O [Compound I-171, [(1R,2S,4R)-2-hydroxy-4-{[5-({1-[4-(trifluoromethyl)benzyl]-1H-pyrazol-3-yl}carbonyl)pyrimidin-4-yl]amino}cyclopentyl]methyl sulfamate] | < 10 | 95
13 | CC(C)Cn1ccc(C(=O)c2cncnc2N[C@@H]2C[C@H](COS(N)(=O)=O)[C@@H](O)[C@H]2O)n1 [Compound I-173, [(1R,2R,3S,4R)-2,3-dihydroxy-4-({5-[(1-isobutyl-1H-pyrazol-3-yl)carbonyl]pyrimidin-4-yl}amino)cyclopentyl]methyl sulfamate] | 10 to 100 | 71
14 | NS(=O)(=O)OC[C@H]1C[C@@H](Nc2ccncc2C(=O)c2ccn(Cc3ccc(Cl)c(C(F)(F)F)c3)n2)C[C@@H]1O [Compound I-174, [(1R,2S,4R)-4-{[3-({1-[4-chloro-3-(trifluoromethyl)benzyl]-1H-pyrazol-3-yl}carbonyl)pyridin-4-yl]amino}-2-hydroxycyclopentyl]methyl sulfamate] | < 10 | 93
15 | NS(=O)(=O)OC[C@H]1C[C@@H](Nc2ncncc2C(=O)c2ccn(Cc3cccc(Cl)c3)n2)[C@@H](F)[C@@H]1O [Compound I-176, {(1R,2R,3R,4R)-4-[(5-{[1-(3-chlorobenzyl)-1H-pyrazol-3-yl]carbonyl}pyrimidin-4-yl)amino]-3-fluoro-2-hydroxycyclopentyl}methyl sulfamate] | < 10 | 98
16 | NS(=O)(=O)OC[C@H]1C[C@@H](Nc2ncncc2C(=O)c2ccn(Cc3cccc(Br)c3F)n2)[C@@H](F)[C@@H]1O [Compound I-177, ((1R,2R,3R,4R)-4-((5-(1-(3-Bromo-2-fluorobenzyl)-1H-pyrazole-3 carbonyl)pyrimidin-4-yl)amino)-3-fluoro-2-hydroxycyclopentyl)methyl sulfamate] | < 10 | 99
17 | NS(=O)(=O)OC[C@H]1C[C@@H](Nc2ncncc2C(=O)c2ccn(Cc3ccc(F)c(I)c3)n2)[C@@H](F)[C@@H]1O [Compound I-178, {(1R,2R,3R,4R)-3-fluoro-4-[(5-{[1-(4-fluoro-3-iodobenzyl)-1H-pyrazol-3-yl]carbonyl}pyrimidin-4-yl)amino]-2-hydroxycyclopentyl}methyl sulfamate] | < 10 | 99
18 | NS(=O)(=O)OC[C@H]1C[C@@H](Nc2ncncc2C(=O)c2ccn(Cc3ccc(Cl)c(Br)c3)n2)C[C@@H]1O [Compound I-179, {(1R,2S,4R)-4-[(5-{[1-(3-bromo-4-chlorobenzyl)-1H-pyrazol-3-yl]carbonyl}pyrimidin-4-yl)amino]-2-hydroxycyclopentyl}methyl sulfamate] | < 10 | > 99
19 | NS(=O)(=O)OC[C@H]1C[C@@H](Nc2ncncc2C(=O)c2ccn(Cc3ccc(Cl)o3)n2)C[C@@H]1O [Compound I-180, [(1R,2S,4R)-4-{[5-({1-[(5-chloro-2-furyl)methyl]-1H-pyrazol-3-yl}carbonyl)pyrimidin-4-yl]amino}-2-hydroxycyclopentyl]methyl sulfamate] | < 10 | 99
20 | NS(=O)(=O)OC[C@H]1C[C@@H](Nc2ncncc2C(=O)c2ccn(Cc3cc(C(F)(F)F)ccc3Cl)n2)[C@@H](F)[C@@H]1O [Compound I-181, [(1R,2R,3R,4R)-4-{[5-({1-[2-chloro-5-(trifluoromethyl)benzyl]-1H-pyrazol-3-yl}carbonyl)pyrimidin-4-yl]amino}-3-fluoro-2-hydroxycyclopentyl]methyl sulfamate] | < 10 | 94

From patent publication US9695154B2, “Heteroaryl inhibitors of sumo activating enzyme” (MILLENNIUM PHARMACEUTICALS, INC., priority 2013, dated 2017)
